Results as given in ChEMBL document CHEMBL1201862, “PubChem BioAssay data set” (2004).
Blank lines part the entries; values can stand above or below the compound they belong to. Active and inactive are the calls of the source.

How the values were obtained:
Format in all cases: functional
[1] = molecular target: Dual specificity protein kinase CLK2 (Homo sapiens, UniProt P49760)
[2] = molecular target: Dual specificity mitogen-activated protein kinase kinase 1 (Homo sapiens, UniProt Q02750); test: Navigating the Kinome. Panel member name: MAP2K1
[3] = molecular target: Serine/threonine-protein kinase TBK1 (Homo sapiens, UniProt Q9UHD2); test: Navigating the Kinome. Panel member name: TBK1
[4] = molecular target: ALK tyrosine kinase receptor (Homo sapiens, UniProt Q9UM73);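 further: ALK tested as one member of a kinase panel screen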
[5] = molecular target: T1, Serine/threonine-protein kinase D3 (Homo sapiens, UniProt O94806);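 further: determined within a kinase panel screen, with PRKCN as the panel member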
T1 sequence (O94806 whole entry): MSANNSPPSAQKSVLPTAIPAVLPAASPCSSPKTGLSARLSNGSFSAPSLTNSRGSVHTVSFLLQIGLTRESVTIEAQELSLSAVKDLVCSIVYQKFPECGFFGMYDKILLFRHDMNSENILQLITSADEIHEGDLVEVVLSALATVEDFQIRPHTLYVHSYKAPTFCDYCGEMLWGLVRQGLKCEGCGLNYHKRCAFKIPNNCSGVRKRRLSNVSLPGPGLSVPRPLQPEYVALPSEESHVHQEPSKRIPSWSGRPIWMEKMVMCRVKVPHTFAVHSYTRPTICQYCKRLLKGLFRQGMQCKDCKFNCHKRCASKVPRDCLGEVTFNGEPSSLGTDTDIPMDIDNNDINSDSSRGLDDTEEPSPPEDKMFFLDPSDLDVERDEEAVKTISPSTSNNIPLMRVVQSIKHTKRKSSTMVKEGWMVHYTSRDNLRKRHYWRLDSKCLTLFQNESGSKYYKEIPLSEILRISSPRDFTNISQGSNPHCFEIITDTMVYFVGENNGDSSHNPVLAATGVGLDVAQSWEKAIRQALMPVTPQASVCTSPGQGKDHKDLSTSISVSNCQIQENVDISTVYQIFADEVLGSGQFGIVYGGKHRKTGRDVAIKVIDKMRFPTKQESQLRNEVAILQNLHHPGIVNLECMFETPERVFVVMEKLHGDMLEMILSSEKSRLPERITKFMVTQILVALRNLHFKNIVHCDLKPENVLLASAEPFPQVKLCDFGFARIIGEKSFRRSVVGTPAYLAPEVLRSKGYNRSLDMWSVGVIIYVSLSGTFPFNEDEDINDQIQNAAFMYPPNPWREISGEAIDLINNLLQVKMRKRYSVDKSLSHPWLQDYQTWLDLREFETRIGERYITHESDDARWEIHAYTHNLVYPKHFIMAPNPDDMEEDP

[6] = molecular target: Mitogen-activated protein kinase 8 (Homo sapiens, UniProt P45983);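 further: value comes from one member of a kinome-wide kinase profiling panel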
[7] = molecular target: Tyrosine-protein kinase BTK (Homo sapiens, UniProt Q06187)
[8] = molecular target: Mitogen-activated protein kinase 9 (Homo sapiens, UniProt P45984);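 further: value from a kinome panel profiling assay, MAPK9 panel entry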
[9] = molecular target: Mitogen-activated protein kinase kinase kinase kinase 2 (Homo sapiens, UniProt Q12851);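 further: measured as one member of a kinome-wide kinase panel, with MAP4K2 as the panel entry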
[10] = molecular target: Hepatocyte growth factor receptor (Homo sapiens, UniProt P08581);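 further: kinase panel profiling across the kinome, with MET as the panel member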
[11] = molecular target: Tyrosine-protein kinase ABL1 (Homo sapiens, UniProt P00519)
[12] = molecular target: Rho-associated protein kinase 1 (Homo sapiens, UniProt Q13464);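 further: measured within a broad kinome-wide panel profiling many kinases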
[13] = molecular target: Serine/threonine-protein kinase Nek2 (Homo sapiens, UniProt P51955)
[14] = molecular target: Macrophage-stimulating protein receptor (Homo sapiens, UniProt Q04912); test: Navigating the Kinome. Panel member name: MST1R
[15] = molecular target: Dual specificity mitogen-activated protein kinase kinase 2 (Homo sapiens, UniProt P36507); test: Navigating the Kinome. Panel member name: MAP2K2
[16] = molecular target: Calcium/calmodulin-dependent protein kinase type II subunit alpha (Homo sapiens, UniProt Q9UQM7); test: Navigating the Kinome. Panel member name: CAMK2A
[17] = molecular target: Mitogen-activated protein kinase 14 (Homo sapiens, UniProt Q16539);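 further: part of a kinome-wide panel, MAPK14 entry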
[18] = molecular target: Megakaryocyte-associated tyrosine-protein kinase (Homo sapiens, UniProt P42679);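 further: affinity measured as one member of a kinase panel (Navigating the Kinome) against MATK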
[19] = molecular target: RAC-gamma serine/threonine-protein kinase (Homo sapiens, UniProt Q9Y243)
[20] = molecular target: Eukaryotic elongation factor 2 kinase (Homo sapiens, UniProt O00418)
[21] = molecular target: Cell division cycle 7-related protein kinase (Homo sapiens, UniProt O00311);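 further: value obtained from a kinome-wide kinase panel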
[22] = molecular target: Mast/stem cell growth factor receptor Kit (Homo sapiens, UniProt P10721);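 further: KIT entry within a kinase panel assay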
[23] = molecular target: Proto-oncogene tyrosine-protein kinase ROS (Homo sapiens, UniProt P08922);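 further: ROS1 tested as one member of a kinome-wide kinase panel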
[24] = molecular target: Protein kinase C gamma type (Homo sapiens, UniProt P05129)
[25] = molecular target: Dual specificity tyrosine-phosphorylation-regulated kinase 4 (Homo sapiens, UniProt Q9NR20)
[26] = molecular target: Interleukin-1 receptor-associated kinase 1 (Homo sapiens, UniProt P51617);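 further: IRAK1 tested as one member of a kinome panel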
[27] = molecular target: Maternal embryonic leucine zipper kinase (Homo sapiens, UniProt Q14680)
[28] = molecular target: Serine/threonine-protein kinase pim-2 (Homo sapiens, UniProt Q9P1W9);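 further: value comes from a broad kinase panel profiling study in which PIM2 was one of the panel members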
[29] = molecular target: Serine/threonine-protein kinase DCLK1 (Homo sapiens, UniProt O15075);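 further: affinity for DCLK1 (listed as DCAMKL1) measured as one member of a kinome-wide kinase profiling panel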
[30] = molecular target: Fibroblast growth factor receptor 3 (Homo sapiens, UniProt P22607)
[31] = molecular target: Serine/threonine-protein kinase MRCK alpha (Homo sapiens, UniProt Q5VT25)

Chain of Mitogen-activated protein kinase 8 (P45983 whole entry): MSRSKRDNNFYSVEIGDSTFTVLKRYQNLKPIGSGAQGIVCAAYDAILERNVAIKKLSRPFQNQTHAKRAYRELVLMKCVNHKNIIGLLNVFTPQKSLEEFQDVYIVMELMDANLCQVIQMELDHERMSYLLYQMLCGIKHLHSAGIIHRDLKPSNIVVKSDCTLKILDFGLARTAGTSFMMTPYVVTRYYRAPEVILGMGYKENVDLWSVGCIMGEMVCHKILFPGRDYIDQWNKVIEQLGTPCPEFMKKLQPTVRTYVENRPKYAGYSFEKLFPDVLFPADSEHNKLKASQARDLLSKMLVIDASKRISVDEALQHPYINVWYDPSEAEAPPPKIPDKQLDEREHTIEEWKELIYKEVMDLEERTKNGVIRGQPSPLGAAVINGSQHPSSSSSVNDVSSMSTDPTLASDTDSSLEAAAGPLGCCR
Chain of Serine/threonine-protein kinase Nek2 (P51955 whole entry): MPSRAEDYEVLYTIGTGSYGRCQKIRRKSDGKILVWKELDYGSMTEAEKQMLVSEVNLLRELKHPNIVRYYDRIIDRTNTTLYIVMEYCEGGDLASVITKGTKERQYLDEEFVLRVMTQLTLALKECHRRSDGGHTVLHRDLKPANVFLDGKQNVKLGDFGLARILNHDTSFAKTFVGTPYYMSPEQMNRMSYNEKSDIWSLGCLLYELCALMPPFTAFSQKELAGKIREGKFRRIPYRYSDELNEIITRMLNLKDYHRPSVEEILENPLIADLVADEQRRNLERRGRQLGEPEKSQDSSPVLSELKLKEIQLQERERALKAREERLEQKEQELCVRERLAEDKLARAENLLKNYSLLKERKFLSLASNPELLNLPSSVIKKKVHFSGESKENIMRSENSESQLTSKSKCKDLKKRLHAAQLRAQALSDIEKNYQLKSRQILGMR
Chain of ALK tyrosine kinase receptor (Q9UM73 whole entry): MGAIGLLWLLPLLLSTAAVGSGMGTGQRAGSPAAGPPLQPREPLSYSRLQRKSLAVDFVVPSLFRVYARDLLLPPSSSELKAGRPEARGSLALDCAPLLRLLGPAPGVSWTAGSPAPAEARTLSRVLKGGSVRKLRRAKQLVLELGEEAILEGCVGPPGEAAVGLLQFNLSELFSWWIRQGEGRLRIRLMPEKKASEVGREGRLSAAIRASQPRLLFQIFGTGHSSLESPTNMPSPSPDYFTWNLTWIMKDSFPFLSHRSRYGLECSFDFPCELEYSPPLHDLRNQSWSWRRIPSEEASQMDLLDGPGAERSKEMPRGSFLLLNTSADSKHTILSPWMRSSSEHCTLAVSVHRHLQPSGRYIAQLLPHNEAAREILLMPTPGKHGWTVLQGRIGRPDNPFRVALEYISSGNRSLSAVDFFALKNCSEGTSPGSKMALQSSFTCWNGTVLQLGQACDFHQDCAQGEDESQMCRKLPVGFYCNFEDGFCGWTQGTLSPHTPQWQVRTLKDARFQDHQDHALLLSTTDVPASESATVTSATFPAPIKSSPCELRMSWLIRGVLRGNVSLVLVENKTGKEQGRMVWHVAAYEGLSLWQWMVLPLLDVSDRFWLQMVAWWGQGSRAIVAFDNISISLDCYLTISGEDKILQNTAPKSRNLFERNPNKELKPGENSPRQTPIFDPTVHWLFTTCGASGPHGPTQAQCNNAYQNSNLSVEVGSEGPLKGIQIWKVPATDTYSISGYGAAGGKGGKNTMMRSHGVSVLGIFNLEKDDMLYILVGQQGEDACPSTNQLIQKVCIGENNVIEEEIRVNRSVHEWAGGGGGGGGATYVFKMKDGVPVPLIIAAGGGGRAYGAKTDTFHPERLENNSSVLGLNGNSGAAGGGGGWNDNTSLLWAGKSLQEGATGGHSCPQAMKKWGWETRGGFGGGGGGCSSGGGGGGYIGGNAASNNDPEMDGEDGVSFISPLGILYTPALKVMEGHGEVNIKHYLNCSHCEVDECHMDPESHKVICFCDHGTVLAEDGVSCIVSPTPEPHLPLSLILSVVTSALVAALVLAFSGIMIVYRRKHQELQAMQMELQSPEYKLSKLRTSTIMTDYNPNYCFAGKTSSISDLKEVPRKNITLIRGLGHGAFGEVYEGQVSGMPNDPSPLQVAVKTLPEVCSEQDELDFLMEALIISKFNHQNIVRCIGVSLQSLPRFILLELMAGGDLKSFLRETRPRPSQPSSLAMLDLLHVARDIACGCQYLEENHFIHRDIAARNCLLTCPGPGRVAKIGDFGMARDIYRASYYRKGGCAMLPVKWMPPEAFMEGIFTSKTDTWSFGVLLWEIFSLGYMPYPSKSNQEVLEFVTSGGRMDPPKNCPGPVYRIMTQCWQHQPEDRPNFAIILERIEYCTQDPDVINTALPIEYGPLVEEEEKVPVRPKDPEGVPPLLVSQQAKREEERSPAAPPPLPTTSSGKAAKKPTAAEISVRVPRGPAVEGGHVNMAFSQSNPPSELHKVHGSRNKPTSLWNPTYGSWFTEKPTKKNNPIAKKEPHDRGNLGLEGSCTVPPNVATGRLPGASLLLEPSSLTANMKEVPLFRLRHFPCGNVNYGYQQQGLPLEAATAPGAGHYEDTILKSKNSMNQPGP
Chain of Tyrosine-protein kinase BTK (Q06187 whole entry): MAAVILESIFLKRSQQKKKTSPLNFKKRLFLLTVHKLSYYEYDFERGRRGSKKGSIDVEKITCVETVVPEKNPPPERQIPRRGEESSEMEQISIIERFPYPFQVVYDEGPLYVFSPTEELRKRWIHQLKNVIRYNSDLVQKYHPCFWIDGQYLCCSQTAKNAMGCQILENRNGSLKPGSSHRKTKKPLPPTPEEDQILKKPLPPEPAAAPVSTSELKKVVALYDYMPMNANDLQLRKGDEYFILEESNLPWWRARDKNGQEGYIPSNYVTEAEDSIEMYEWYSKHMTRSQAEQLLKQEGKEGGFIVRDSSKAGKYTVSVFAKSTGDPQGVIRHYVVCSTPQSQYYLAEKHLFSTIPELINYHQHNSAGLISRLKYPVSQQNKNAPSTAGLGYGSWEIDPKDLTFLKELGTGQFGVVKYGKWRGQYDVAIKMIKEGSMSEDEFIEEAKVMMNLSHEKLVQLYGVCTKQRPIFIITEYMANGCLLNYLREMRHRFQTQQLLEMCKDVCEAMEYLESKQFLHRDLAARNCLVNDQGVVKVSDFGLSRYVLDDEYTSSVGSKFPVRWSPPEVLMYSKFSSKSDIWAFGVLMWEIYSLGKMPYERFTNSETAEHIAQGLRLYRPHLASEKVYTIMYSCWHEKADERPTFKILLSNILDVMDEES
Chain of Mitogen-activated protein kinase kinase kinase kinase 2 (Q12851 whole entry): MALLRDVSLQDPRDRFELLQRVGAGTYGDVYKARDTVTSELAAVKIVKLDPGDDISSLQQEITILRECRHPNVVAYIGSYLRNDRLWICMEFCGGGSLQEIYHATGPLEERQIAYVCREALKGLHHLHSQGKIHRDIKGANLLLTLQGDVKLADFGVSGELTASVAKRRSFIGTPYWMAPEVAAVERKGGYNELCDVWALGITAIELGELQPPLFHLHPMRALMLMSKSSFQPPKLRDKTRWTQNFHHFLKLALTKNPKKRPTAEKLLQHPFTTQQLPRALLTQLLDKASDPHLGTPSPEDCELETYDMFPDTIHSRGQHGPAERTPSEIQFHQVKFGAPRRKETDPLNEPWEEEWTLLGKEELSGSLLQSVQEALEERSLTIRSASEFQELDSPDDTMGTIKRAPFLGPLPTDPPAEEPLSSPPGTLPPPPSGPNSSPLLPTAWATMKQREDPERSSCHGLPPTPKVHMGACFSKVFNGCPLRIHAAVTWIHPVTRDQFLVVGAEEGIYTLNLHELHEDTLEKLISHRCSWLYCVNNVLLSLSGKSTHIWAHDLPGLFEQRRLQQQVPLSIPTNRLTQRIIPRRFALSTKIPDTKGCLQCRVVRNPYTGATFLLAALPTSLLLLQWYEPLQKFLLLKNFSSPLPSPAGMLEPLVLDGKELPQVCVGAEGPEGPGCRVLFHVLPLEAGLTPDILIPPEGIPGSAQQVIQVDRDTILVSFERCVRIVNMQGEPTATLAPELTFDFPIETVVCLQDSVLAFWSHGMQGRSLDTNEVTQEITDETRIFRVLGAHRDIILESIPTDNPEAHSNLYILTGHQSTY
Chain of Mitogen-activated protein kinase 9 (P45984 whole entry): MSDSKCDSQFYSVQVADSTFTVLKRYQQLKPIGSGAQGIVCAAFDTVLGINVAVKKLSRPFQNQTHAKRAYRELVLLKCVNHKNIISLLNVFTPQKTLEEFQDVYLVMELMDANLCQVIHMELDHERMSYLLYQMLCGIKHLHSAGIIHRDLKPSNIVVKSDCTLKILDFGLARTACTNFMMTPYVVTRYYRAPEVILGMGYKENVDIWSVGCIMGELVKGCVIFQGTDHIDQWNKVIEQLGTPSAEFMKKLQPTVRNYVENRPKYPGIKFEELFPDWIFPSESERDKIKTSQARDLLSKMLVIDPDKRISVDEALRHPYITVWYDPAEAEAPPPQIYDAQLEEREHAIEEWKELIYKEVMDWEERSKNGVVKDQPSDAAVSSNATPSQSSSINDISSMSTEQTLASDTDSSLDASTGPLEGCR
Chain of Cell division cycle 7-related protein kinase (O00311 whole entry): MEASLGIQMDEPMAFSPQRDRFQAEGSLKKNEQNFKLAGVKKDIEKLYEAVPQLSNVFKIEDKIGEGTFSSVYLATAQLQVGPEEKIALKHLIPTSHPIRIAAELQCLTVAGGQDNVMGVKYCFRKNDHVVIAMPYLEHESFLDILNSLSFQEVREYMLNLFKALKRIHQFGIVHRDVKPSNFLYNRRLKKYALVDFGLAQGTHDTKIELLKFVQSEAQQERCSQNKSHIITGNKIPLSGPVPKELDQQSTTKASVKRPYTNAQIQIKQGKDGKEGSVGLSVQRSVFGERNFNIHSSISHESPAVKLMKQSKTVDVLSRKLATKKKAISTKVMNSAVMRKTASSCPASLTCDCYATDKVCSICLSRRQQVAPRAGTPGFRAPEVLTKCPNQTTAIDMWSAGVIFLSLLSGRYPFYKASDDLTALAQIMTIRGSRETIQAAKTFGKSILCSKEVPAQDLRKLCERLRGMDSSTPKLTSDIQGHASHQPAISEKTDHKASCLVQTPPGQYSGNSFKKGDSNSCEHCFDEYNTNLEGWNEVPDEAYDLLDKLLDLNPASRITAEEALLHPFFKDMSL

Ki [1]: > 3.98 µM (inactive) | Ki [2]: > 3.16 µM (inactive) | Ki [3]: > 3.16 µM (inactive) | Ki [4]: > 6.31 µM (inactive) | Ki [5]: > 3.98 µM (inactive) | Ki [6]: > 5.01 µM (inactive) | Ki [7]: > 6.31 µM (inactive) | Ki [8]: > 3.98 µM (inactive) | Ki [9]: > 2.51 µM (inactive) | Ki [10]: > 2.51 µM (inactive) | Ki [11]: > 2.51 µM (inactive) | Ki [12]: 12.6 nM (active) | Ki [13]: > 3.16 µM (inactive) | Ki [14]: > 3.98 µM (inactive) | Ki [15]: > 3.98 µM (inactive) | Ki [16]: > 3.98 µM (inactive) | Ki [17]: > 3.98 µM (inactive)
SMILES: [2H]C([2H])([2H])Oc1cccc(C(C)NC(=O)c2sc(-c3ccncc3)nc2C)c1 (centres undefined)

Ki [18]: > 2 µM (inactive) | Ki [19]: 3.98 nM (active) | Ki [4]: 0.794 µM (active) | Ki [20]: 3.16 µM (active) | Ki [5]: 0.00398 µM (active) | Ki [6]: 2.51 µM (active) | Ki [21]: 12.6 nM (active) | Ki [7]: > 1.26 µM (inactive) | Ki [22]: > 1.26 µM (inactive) | Ki [8]: 3.16 µM (active) | Ki [23]: 631 nM (active) | Ki [24]: 15.8 nM (active) | Ki [9]: 0.0631 µM (active) | Ki [11]: > 0.631 µM (inactive) | Ki [25]: 1 µM (active) | Ki [26]: 501 nM (active) | Ki [27]: 200 nM (active) | Ki [28]: 12.6 nM (active) | Ki [29]: 2 µM (active) | Ki [13]: > 10 µM (inactive) | Ki [30]: > 2 µM (inactive) | Ki [31]: 7.94 nM (active)
SMILES: Cc1n[nH]c2ccc(-c3cncc(OCC(N)Cc4ccc(Cl)c(Cl)c4)c3)cc12 (centres undefined)
